According to article PMC5951806, “Rapid labelling and covalent inhibition of intracellular native proteins using ligand-directed N-acyl-N-alkyl sulfonamide” (Nature Communications, 2018):
Where “and” joins values, the source holds several entries; their conditions need not be identical. Identical values can stand only once.

How the values were obtained:
Assay in all cases: TMT LC-MSMS of 11-labelled proteins
Assay type in all cases: cell-based
[1] = target: 60 kDa heat shock protein, mitochondrial (HSPD1) (Homo sapiens, UniProt P10809)
60 kDa heat shock protein, mitochondrial (HSPD1), sequence (P10809 27-573): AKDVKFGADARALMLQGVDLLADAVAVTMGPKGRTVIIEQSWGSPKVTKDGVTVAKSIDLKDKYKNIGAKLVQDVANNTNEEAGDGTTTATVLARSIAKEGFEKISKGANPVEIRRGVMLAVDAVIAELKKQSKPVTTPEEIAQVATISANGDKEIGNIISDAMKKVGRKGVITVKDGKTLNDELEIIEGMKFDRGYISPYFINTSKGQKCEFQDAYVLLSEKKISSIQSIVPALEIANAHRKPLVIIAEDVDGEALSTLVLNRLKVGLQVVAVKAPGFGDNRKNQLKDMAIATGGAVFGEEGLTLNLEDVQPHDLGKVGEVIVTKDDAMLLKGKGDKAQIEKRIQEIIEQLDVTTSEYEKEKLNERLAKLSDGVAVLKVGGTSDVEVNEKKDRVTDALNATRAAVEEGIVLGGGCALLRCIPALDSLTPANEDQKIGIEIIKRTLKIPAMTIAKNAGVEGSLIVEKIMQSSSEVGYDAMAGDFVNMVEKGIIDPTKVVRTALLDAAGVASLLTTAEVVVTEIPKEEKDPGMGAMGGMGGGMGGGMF

Desmoplakin (DSP) = Desmoplakin (DSP) (Homo sapiens, UniProt P15924)
Desmoplakin (DSP), sequence (P15924 whole entry): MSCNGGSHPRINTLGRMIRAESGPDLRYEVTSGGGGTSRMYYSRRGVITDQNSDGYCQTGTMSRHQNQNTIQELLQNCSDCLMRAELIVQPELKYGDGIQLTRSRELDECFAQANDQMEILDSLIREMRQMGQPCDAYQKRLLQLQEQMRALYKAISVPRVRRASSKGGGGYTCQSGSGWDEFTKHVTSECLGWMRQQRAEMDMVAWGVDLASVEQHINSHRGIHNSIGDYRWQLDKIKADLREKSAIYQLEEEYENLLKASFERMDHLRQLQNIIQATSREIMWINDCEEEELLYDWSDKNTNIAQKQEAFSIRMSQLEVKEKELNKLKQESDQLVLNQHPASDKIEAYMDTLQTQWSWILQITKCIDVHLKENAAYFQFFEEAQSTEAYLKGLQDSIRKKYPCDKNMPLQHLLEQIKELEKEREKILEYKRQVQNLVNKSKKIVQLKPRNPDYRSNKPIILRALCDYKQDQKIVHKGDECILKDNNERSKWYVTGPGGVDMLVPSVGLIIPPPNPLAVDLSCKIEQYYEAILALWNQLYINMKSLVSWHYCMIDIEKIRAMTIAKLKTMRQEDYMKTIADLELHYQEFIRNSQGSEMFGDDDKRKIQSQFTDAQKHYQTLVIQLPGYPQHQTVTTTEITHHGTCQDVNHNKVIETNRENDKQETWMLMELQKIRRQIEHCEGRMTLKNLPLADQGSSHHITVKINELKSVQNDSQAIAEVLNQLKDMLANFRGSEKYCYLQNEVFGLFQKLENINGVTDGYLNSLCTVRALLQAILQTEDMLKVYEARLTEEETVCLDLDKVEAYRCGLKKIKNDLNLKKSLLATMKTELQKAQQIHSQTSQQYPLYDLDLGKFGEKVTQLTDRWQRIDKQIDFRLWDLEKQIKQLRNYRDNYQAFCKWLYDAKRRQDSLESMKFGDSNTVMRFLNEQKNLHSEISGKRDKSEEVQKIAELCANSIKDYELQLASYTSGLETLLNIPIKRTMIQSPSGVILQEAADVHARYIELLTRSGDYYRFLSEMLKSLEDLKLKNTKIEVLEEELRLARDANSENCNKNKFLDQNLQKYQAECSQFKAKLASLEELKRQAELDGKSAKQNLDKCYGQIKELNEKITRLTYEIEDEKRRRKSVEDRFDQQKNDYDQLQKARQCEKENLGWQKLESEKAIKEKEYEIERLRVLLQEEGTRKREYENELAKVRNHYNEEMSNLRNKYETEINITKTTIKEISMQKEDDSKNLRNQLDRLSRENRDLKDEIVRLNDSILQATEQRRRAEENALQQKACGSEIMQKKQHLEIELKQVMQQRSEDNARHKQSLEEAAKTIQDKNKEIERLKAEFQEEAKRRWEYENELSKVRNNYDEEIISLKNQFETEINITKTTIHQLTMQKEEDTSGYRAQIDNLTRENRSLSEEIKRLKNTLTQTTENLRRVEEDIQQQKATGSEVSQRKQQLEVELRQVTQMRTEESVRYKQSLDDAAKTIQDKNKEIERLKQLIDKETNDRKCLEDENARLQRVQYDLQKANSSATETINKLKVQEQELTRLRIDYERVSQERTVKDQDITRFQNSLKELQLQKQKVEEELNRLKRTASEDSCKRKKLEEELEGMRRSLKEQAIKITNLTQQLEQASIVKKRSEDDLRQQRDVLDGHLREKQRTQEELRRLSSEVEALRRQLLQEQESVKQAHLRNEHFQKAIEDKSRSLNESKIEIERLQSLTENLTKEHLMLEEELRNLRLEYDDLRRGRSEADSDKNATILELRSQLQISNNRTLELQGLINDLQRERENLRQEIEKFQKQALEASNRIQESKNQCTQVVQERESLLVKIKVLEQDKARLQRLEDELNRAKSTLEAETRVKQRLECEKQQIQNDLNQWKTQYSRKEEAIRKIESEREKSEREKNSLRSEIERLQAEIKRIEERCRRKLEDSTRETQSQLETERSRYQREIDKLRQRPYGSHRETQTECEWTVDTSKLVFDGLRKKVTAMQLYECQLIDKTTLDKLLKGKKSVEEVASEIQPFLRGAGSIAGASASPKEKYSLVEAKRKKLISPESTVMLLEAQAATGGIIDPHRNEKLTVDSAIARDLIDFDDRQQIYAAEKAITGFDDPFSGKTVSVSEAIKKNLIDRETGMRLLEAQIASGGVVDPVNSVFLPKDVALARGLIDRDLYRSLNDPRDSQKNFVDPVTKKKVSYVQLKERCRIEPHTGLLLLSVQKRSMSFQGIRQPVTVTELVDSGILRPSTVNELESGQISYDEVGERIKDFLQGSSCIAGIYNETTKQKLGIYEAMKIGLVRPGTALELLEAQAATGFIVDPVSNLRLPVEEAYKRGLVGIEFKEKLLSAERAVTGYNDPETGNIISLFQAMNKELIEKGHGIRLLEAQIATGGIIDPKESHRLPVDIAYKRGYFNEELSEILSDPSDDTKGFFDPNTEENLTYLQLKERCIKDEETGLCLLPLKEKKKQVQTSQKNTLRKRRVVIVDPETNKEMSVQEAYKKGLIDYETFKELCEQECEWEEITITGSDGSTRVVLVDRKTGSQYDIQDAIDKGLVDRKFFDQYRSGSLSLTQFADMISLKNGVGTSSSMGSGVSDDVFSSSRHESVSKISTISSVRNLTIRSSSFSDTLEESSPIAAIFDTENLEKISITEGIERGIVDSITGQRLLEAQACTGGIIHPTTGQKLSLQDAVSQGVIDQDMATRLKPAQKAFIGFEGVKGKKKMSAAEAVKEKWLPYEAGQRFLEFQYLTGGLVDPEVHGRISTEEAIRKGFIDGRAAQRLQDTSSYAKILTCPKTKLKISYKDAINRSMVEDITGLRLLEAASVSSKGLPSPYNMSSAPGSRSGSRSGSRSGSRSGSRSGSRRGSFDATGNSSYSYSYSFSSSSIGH

[2] = target: Heat shock protein HSP 90-beta (HSP90AB1) (Homo sapiens, UniProt P08238)
Heat shock protein HSP 90-beta (HSP90AB1), sequence (P08238 whole entry, canonical isoform): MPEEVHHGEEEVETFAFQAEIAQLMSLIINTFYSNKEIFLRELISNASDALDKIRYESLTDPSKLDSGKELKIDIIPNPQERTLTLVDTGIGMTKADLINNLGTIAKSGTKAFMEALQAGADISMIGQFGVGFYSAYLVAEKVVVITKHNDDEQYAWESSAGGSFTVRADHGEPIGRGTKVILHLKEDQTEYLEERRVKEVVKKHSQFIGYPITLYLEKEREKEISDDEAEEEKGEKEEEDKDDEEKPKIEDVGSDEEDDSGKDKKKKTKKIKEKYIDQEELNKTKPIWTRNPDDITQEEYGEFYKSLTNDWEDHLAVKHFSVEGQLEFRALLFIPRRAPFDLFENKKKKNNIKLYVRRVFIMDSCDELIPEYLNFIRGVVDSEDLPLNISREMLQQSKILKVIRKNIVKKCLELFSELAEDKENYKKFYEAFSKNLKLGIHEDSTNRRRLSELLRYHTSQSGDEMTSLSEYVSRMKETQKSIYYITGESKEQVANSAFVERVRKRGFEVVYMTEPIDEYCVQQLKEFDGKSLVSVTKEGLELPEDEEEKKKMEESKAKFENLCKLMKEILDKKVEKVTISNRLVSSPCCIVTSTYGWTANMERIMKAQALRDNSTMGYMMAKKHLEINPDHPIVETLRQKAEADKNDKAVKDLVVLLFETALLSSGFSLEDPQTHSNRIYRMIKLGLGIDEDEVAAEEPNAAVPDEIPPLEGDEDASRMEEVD

[3] = target: Isoform 3 of L-lactate dehydrogenase A chain (LDHA) (Homo sapiens, UniProt P00338)
[4] = target: Stress-70 protein, mitochondrial (HSPA9) (Homo sapiens, UniProt P38646)
Stress-70 protein, mitochondrial (HSPA9), sequence (P38646 47-679): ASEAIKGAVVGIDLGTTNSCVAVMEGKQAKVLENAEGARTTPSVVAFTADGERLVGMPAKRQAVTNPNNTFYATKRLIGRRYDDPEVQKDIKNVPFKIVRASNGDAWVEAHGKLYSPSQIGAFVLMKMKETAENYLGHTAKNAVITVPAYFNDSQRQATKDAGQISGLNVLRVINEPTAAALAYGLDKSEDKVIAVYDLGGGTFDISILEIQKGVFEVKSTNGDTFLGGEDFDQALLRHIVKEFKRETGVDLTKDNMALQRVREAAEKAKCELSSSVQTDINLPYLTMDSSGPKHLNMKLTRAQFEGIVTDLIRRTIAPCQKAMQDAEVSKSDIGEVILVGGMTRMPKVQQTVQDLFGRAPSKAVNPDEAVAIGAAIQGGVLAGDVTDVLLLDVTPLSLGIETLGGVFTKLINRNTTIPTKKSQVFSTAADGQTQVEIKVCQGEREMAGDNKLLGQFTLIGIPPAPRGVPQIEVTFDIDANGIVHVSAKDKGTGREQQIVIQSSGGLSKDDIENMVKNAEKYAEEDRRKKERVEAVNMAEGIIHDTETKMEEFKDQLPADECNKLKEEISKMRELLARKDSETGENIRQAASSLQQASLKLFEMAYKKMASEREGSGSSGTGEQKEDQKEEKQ

[5] = target: T-complex protein 1 subunit theta (CCT8) (Homo sapiens, UniProt P50990); conditions: sheet Exp1, SKBR3 cells
[6] = sheet Merged, SKBR3 cells, 11 0.5 µM 3 h vs DMSO
[7] = sheet Merged, SKBR3 cells, 11 0.5 µM 3 h vs with PU-H71 10 µM
[8] = sheet Exp1, SKBR3 cells, 11 0.5 µM 3 h vs DMSO
[9] = sheet Exp1, SKBR3 cells, 11 0.5 µM 3 h vs with PU-H71 10 µM

Abundance Ratio: (11) / (11 with PU-H71) ([1]; Exp3, HSPD1): 0.857
Abundance Ratio: (11) / (DMSO) ([1]; Exp3, HSPD1): 2.057
Abundances (Grouped): 11 ([1]; Exp3, HSPD1): 57.6
Abundances (Grouped): 11 with PU-H71 ([1]; Exp3, HSPD1): 67.2
Abundance Ratio: (11) / (11 with PU-H71) ([1]; sheet Exp2, HSPD1): 1.035
Abundance Ratio: (11) / (DMSO) ([1]; sheet Exp2, HSPD1): 2.527
Abundances (Grouped): 11 ([1]; sheet Exp2, HSPD1): 61.4
Abundances (Grouped): 11 with PU-H71 ([1]; sheet Exp2, HSPD1): 59.3
Abundance Ratio: (11) / (DMSO) [1, 6]: 2.28
Abundance Ratio: (11) / (11 with PU-H71) [1, 7]: 0.942
Abundance Ratio: (11) / (11 with PU-H71) (Desmoplakin (DSP); Exp3, DSP): 0.922
Abundance Ratio: (11) / (DMSO) (Desmoplakin (DSP); Exp3, DSP): 1.358
Abundances (Grouped): 11 (Desmoplakin (DSP); Exp3, DSP): 44.8
Abundances (Grouped): 11 with PU-H71 (Desmoplakin (DSP); Exp3, DSP): 48.6
Abundance Ratio: (11) / (11 with PU-H71) (Desmoplakin (DSP); sheet Exp2, DSP): 1.054
Abundance Ratio: (11) / (DMSO) (Desmoplakin (DSP); sheet Exp2, DSP): 1.067
Abundances (Grouped): 11 (Desmoplakin (DSP); sheet Exp2, DSP): 43.1
Abundances (Grouped): 11 with PU-H71 (Desmoplakin (DSP); sheet Exp2, DSP): 40.9
Abundance Ratio: (11) / (DMSO) (Desmoplakin (DSP); [6]): 1.203
Abundance Ratio: (11) / (11 with PU-H71) (Desmoplakin (DSP); [7]): 0.986
Abundance Ratio: (11) / (11 with PU-H71) ([2]; Exp3, HSP90AB1): 3.363
Abundance Ratio: (11) / (DMSO) ([2]; Exp3, HSP90AB1): 10.531
Abundances (Grouped): 11 ([2]; Exp3, HSP90AB1): 3418.4
Abundances (Grouped): 11 with PU-H71 ([2]; Exp3, HSP90AB1): 1016.5
Abundance Ratio: (11) / (DMSO) [2, 8]: 8.2
Abundance Ratio: (11) / (11 with PU-H71) [2, 9]: 3.253
Abundance Ratio: (11) / (11 with PU-H71) ([2]; sheet Exp2, HSP90AB1): 3.262
Abundance Ratio: (11) / (DMSO) ([2]; sheet Exp2, HSP90AB1): 9.509
Abundances (Grouped): 11 ([2]; sheet Exp2, HSP90AB1): 4464.4
Abundances (Grouped): 11 with PU-H71 ([2]; sheet Exp2, HSP90AB1): 1368.7
Abundance Ratio: (11) / (DMSO) [2, 6]: 9.3 and 9.344
Abundance Ratio: (11) / (11 with PU-H71) [2, 7]: 3.227
Abundance Ratio: (11) / (11 with PU-H71) ([3]; Exp3, LDHA): 0.709
Abundance Ratio: (11) / (DMSO) ([3]; Exp3, LDHA): 4.426
Abundances (Grouped): 11 ([3]; Exp3, LDHA): 517.9
Abundances (Grouped): 11 with PU-H71 ([3]; Exp3, LDHA): 730.3
Abundance Ratio: (11) / (DMSO) [3, 8]: 4.186
Abundance Ratio: (11) / (11 with PU-H71) [3, 9]: 0.705
Abundance Ratio: (11) / (11 with PU-H71) ([3]; sheet Exp2, LDHA): 0.702
Abundance Ratio: (11) / (DMSO) ([3]; sheet Exp2, LDHA): 3.79
Abundances (Grouped): 11 ([3]; sheet Exp2, LDHA): 554.9
Abundances (Grouped): 11 with PU-H71 ([3]; sheet Exp2, LDHA): 790.3
Abundance Ratio: (11) / (DMSO) [3, 6]: 4.186
Abundance Ratio: (11) / (11 with PU-H71) [3, 7]: 0.705
Abundance Ratio: (11) / (11 with PU-H71) ([4]; Exp3, HSPA9): 0.949
Abundance Ratio: (11) / (DMSO) ([4]; Exp3, HSPA9): 2.217
Abundances (Grouped): 11 ([4]; Exp3, HSPA9): 31.7
Abundances (Grouped): 11 with PU-H71 ([4]; Exp3, HSPA9, with PU-H71): 33.4
Abundance Ratio: (11) / (DMSO) [4, 6]: 2.217
Abundance Ratio: (11) / (11 with PU-H71) [4, 7]: 0.949
Abundance Ratio: (11) / (DMSO) ([5]; 11 0.5 µM 3 h vs DMSO): 2.74
Abundance Ratio: (11) / (11 with PU-H71) ([5]; 11 0.5 µM 3 h vs with PU-H71 10 µM): 0.821
SMILES: CC(=O)Oc1ccc2c(c1)Oc1cc(OC(C)=O)ccc1C21OC(=O)c2cc(C(=O)NCCOCCOCCNC(=O)CCCC(=O)N(CC#N)S(=O)(=O)c3ccc(C(=O)NCCCn4c(Sc5cc6c(cc5I)OCO6)nc5c(N)ncnc54)cc3)ccc21 [compound 11]
